# Experimental data from paper PMC8040286 (iScience, 2021).
# Like-named read-outs stand apart in the source and are kept apart here.
# How the values were obtained:
# [1] = system: T. cruzi epimastigotes (Y strain); test: microbe, parasite or virus in culture; assay type: cell-based, Trypanosoma cruzi; conditions: for IC50: Trypanosoma cruzi, 72 h, read-out: IC50 epimastigotes; for Selectivity Index (CC50 CHO/IC50 Epi): CC50 CHO / IC50 epimastigotes
# [2] = system: T. cruzi parasite release from trypomastigote-infected CHO cells; test: microbe, parasite or virus in culture; assay type: cell-based; conditions: Trypanosoma cruzi; for IC50: read-out: IC50 inhibition of parasite release, serum-free conditions (high ROS), serum-free host cell culture as used in the screening
# [3] = Cytotoxicity/antiproliferative MTT assay in CHO host cells; assay type: cell-based, hamster; conditions: Chinese hamster, CHO-K1 cells
# [4] = system: GFP-expressing T. cruzi (Y) trypomastigotes released from infected CHO cells; test: microbe, parasite or virus in culture; assay type: cell-based, Trypanosoma cruzi; conditions: for inhibition at 5 µM: read-out: Percentage inhibition of parasite release at 5 μM (low ROS)
# [5] = rodents; ref Li et al., 2020; cited from earlier work
# casein kinase 1 = conditions: read-out: IC50 casein kinase 1; ref Justiniano et al., 2014; cited from earlier work
# CHO-K1 cells = test: Cytotoxicity/antiproliferative MTT assay in CHO host cells; assay type: cell-based, hamster; conditions: read-out: CC50 CHO cells; 72-hr incubation; anthraquinones (Table 5)
# [6] = read-out: Percentage inhibition of parasite release (serum-free) at 5 μM, 5 μM, serum-free, 6 dpi, CHO host cells
# [7] = Cytotoxicity CC50 CHO cells, 72 hr (Table 3)
# [8] = CC50 CHO cells, 72-hr incubation, anthraquinones (Table 5)
# [9] = Cytotoxicity CC50 CHO cells without FBS, 72 hr, without FBS
# [10] = read-out: IC50 inhibition of parasite release, 0.5% hiFBS (low ROS), 0.5% hiFBS, low ROS, GFP-expressing trypomastigotes, 6 dpi
SMILES,IC50 [1],"inhibition at 5 µM ([4]; Trypanosoma cruzi, CHO)","CC50 at 72 h [3, 8]",other results
CC(=O)c1c(C)cc2cccc(O)c2c1O [Nepodin],28.7 ± 13.3 µM,–,–,"inhibition at 5 µM [2, 6]: ~30%; CC50 at 72 h [3, 7]: > 100 µM"
"CC(=O)Oc1cccc2c1C(=O)c1c(OC(C)=O)cc(C(=O)O)cc1C2=O [compound 16, Diacerein]",> 50 µM,0%,–,–
"Cc1cc(O)c2c(c1)C(=O)c1cccc(O)c1C2=O [compound 10, Chrysophanol]",6.6 ± 3.5 µM,22.6 ± 17.2%,35.7 ± 7.4 µM,Selectivity Index (CC50 CHO/IC50 Epi) [1]: 5.4
"O=C1c2cccc(O)c2C(=O)c2cccc(O)c21 [compound 7, Anthrarufin]",> 50 µM,0%,–,–
C=C1[C@@H]2[C@H]3OC(=O)C(=C)[C@@H]3CCC(=C)[C@@H]2C[C@@H]1O [Zaluzanin C],6.7 ± 0.7 µM,–,–,"inhibition at 5 µM [2, 6]: 71 ± 7.5%; CC50 at 72 h [3, 9]: 19.2 ± 5.2 µM; CC50 at 72 h [3, 7]: 6.6 ± 1.7 µM"
"Cc1c(O)ccc2c1C(=O)c1ccccc1C2=O [compound 14, 2-Hydroxy-1-methylanthraquinone]",> 50 µM,20.9 ± 9.7%,88.9 ± 8.9 µM,–
"O=C1c2ccc(O)cc2C(=O)c2ccc(O)cc21 [compound 9, Anthraflavic acid]",> 50 µM,0%,–,–
"O=C1c2cccc(O)c2C(=O)c2c(O)cccc21 [compound 8, Dantron]",5.3 ± 2.3 µM,0%,–,–
"COc1c(O)cc2c(c1O)C(=O)c1c(cc(C)c(O)c1OC)C2=O [compound 18, Aurantio-obtusin]",> 50 µM,0%,–,–
"O=C(O)c1cc(O)c2c(c1)C(=O)c1cccc(O)c1C2=O [compound 15, Rhein]",> 50 µM,0%,–,–
"O=C1c2ccccc2C(=O)c2c1ccc(O)c2O [compound 4, Alizarin]",> 50 µM,0%,–,–
"O=C1c2ccccc2C(=O)c2c(O)c(O)cc(O)c21 [compound 3, Purpurin]",> 50 µM,48.3 ± 18.1%,59.5 ± 10.1 µM,"selectivity index (parasite release) ([4]; basis not stated, discussion): 7"
"Cc1cc(O)c2c(c1)C(=O)c1cc(O)cc(O)c1C2=O [compound 2, Emodin]",14.1 ± 8.2 µM,24.8 ± 12.9%,> 100 µM,"oral bioavailability [5]: 5–10%; Selectivity Index (CC50 CHO/IC50 Epi) [1]: >7; IC50 [2]: 0.72 µM; inhibition at 5 µM [2, 6]: 61.5 ± 18.2%; CC50 at 72 h [3, 7]: > 100 µM; IC50 ([4]; Trypanosoma cruzi, CHO, read-out: IC50 inhibition of parasite release, 0.5% hiFBS (low ROS), 0.5% hiFBS, low ROS, GFP-expressing trypomastigotes, 6 dpi): 9.52 µM; IC50 [4, 10]: 9.5 µM; IC50 (casein kinase 1): 130 µM"
C=C[C@@H](O)C#CC#C[C@@H](O)/C=C\CCCCCCC [Falcarindiol],> 50 µM,–,–,inhibition at 5 µM ([2]; read-out: Percentage inhibition of parasite release (serum-free) at 5 μM): 0%; CC50 at 72 h [3]: > 100 µM
"COc1cc(O)c2c(c1)C(=O)c1cc(C)cc(O)c1C2=O [compound 12, Physcion]",6.4 ± 3.7 µM,0%,–,–
"COc1cc(N)c2c(c1N)C(=O)c1ccccc1C2=O [compound 17, Disperse Red11]",32.9 ± 13.9 µM,46.8 ± 25.6%,> 100 µM,Selectivity Index (CC50 CHO/IC50 Epi) [1]: >3
"Cc1cc2c(cc1O)C(=O)c1ccccc1C2=O [compound 13, 2-Hydroxy-3-methylanthraquinone]",> 50 µM,0%,–,–
"O=C1c2ccccc2C(=O)c2c(O)ccc(O)c21 [compound 6, Quinizarin]",> 50 µM,68.5 ± 19.2%,38 ± 16 µM,Selectivity Index (CC50 CHO/IC50 Epi) [1]: <1; CC50 (CHO-K1 cells): 38.1 ± 16 µM
C=C1CC[C@H]2C(=C)CC[C@H]3C(=C)C(=O)O[C@@H]3[C@@H]12 [Dehydrocostus lactone],1.4 ± 0.4 µM,–,–,"inhibition at 5 µM [2, 6]: 86.2 ± 4.1%; CC50 at 72 h [3, 9]: 12.2 ± 0.5 µM; CC50 at 72 h [3, 7]: 5.8 ± 1.9 µM"
"O=C(Cn1ccnc1[N+](=O)[O-])NCc1ccccc1 [BZN, benznidazole, reference compound]",13.8 ± 2.9 µM,84.9 ± 4.8%,> 100 µM,"Selectivity Index (CC50 CHO/IC50 Epi) [1]: >7; IC50 [2]: 5 to 9 µM; CC50 at 72 h [3, 7]: > 100 µM; IC50 [4, 10]: 1.4 µM"
"O=C1c2ccccc2C(=O)c2ccccc21 [compound 1, Anthraquinone]",> 50 µM,22.2 ± 9.6%,–,CC50 at 72 h [3]: > 100 µM
"O=C1c2ccccc2C(=O)c2c1cc(S(=O)(=O)O)c(O)c2O [compound 5, Alizarin Red S]",> 50 µM,0%,–,–
"C=C1C(=O)O[C@@H]2/C=C(\C)CC/C=C(\C)CC[C@@H]12 [Costunolide, (6R, 7S)-costunolide]",7.4 ± 5.9 µM,–,–,"inhibition at 5 µM [2, 6]: 0%; CC50 at 72 h [3, 9]: 35.4 ± 13.8 µM; CC50 at 72 h [3, 7]: 10.9 ± 3.7 µM"
"O=C1c2cccc(O)c2C(=O)c2c(O)cc(CO)cc21 [compound 11, Aloe-emodin]",14.5 ± 5.6 µM,44 ± 17.6%,42 ± 15.5 µM,Selectivity Index (CC50 CHO/IC50 Epi) [1]: 2.9
